Results published in US20100324096A1, “Whitening Agent And Skin External Preparation” (SHISEIDO COMPANY LTD., priority 2008, published 2010).

Test system: Mouse B16 melanoma cells
Experiment: Melanin production inhibition test
Assay type: cell-based
Details: Mus musculus, 72 h, Table 1, 3 days, minimum non-cytotoxic concentration at which melanin amount was 80% or less, read-out: Inhibitory effect on melanin production
Method: A test for melanin production inhibition by the compounds of the formula (1) was conducted. The test method is as follows.
Melanin Production Inhibition Test
(1) Inoculation of Cells and Addition of Test Substances
Mouse B16 melanoma cells were inoculated in a six well plate at 100,000 cells/well. The next day, test substance solutions (solvent: DMSO) were added.
(2) Cell Proliferation Test
Three days after the addition of the test substance solution, the medium was removed by aspiration. Then 1 ml of EMEM medium containing 10% Alamar Blue solution was added, and a reaction was allowed to proceed at 37° C. After 30 minutes, 100 μL of the reaction mixture was transferred to a 96 well plate and fluorescence was measured at an excitation wavelength of 544 nm and a measurement wavelength of 590 nm. Using the value thus measured as a relative value of cell count, a ratio of the cell count (% cell count) of the test substance-added group to the test substance-absent group (group in which only the solvent was added) was calculated. The higher the % cell count, the lower the cytotoxicity. It was determined that a compound having the % cell count of 80% or more was non-cytotoxic, and that a compound having the % cell count of less than 80% was cytotoxic.
(3) Quantification of Melanin
The cells after the cell proliferation test were washed with PBS three times, and then lysed by addition of 200 μL of 1M NaOH to measure an absorbance at 475 nm. Using the value thus measured as a relative value of the melanin amount, a ratio of the melanin amount (%) of the test substance-added group to the test substance-absent group (group in which only the solvent was added) was calculated. The lower the ratio of the melanin amount, the higher the melanin production-inhibitory effect. […] The inhibitory effect on melanin production was evaluated according to the following criteria.
⊚: the minimum concentration for inhibition of melanin production was 1 ppm or less.
◯: the minimum concentration for inhibition of melanin production was more than 1 ppm and 10 ppm or less.

Row | SMILES | minimal effective concentration
1 | Cc1ccccc1Nc1nc(-c2ccncc2)cs1 [Compound 1] | ≤ 1 µg/mL
2 | Cc1ccccc1Nc1nc(-c2ccccn2)cs1 [Compound 2, 4-(pyridin-2-yl)-N-o-toluylthiazol-2-amine] | ≤ 1 µg/mL
3 | CCc1ccccc1Nc1nc(-c2ccccn2)cs1 [Compound 3] | ≤ 1 µg/mL
4 | c1ccc(Nc2nc(-c3ccccn3)cs2)cc1 [Compound 4] | ≤ 1 µg/mL
5 | Cc1ccc(Nc2nc(C(C)(C)C)cs2)c(C)c1 [Compound 5] | ≤ 1 µg/mL
6 | COc1ccc(-c2nc(Nc3c(C)cccc3C)sc2C)cc1 [Compound 7] | ≤ 1 µg/mL
7 | CCc1ccccc1Nc1nc(-c2ccc(O)c(O)c2)cs1 [Compound 9] | ≤ 1 µg/mL
8 | CCc1ccccc1Nc1nc(-c2ccc(O)cc2O)cs1 [Compound 10] | ≤ 1 µg/mL

Same assay, conditions: Mus musculus, 72 h, Table 3, 3 days, minimum non-cytotoxic concentration at which melanin amount was 80% or less, read-out: Inhibitory effect on melanin production

Row | SMILES | minimal effective concentration
9 | C=CCN(C1=NC(C)(C)C(=C)S1)c1ccc(C)cc1C [Compound 31] | ≤ 1 µg/mL
10 | C=C1SC(Nc2ccc(C)cc2C)=NC1(C)C [Compound 32] | ≤ 1 µg/mL

Same assay, conditions: Mus musculus, 72 h, Table 4, 3 days, minimum non-cytotoxic concentration at which melanin amount was 80% or less, read-out: Inhibitory effect on melanin production

Row | SMILES | minimal effective concentration
11 | O=C(Nc1nccs1)C1(c2ccccc2)CCCC1 [Compound 36] | ≤ 1 µg/mL

Same assay, conditions: Table 1, 3 days, minimum non-cytotoxic concentration at which melanin amount was 80% or less

Row | SMILES | Inhibitory effect on melanin production
12 | CC(=O)c1sc(Nc2ccccc2C)nc1C [Compound 6] | ∘
13 | Cc1cccc(C)c1Nc1nc(-c2ccccc2)cs1 [Compound 8] | ⊚ (the minimum concentration for inhibition of melanin production was 1 ppm or less.)

Same assay, conditions: Table 3, 3 days, minimum non-cytotoxic concentration at which melanin amount was 80% or less

Row | SMILES | Inhibitory effect on melanin production
14 | CCC1CSC(Nc2ccccc2)=N1 (centres unmarked) [Compound 19] | ⊚ (the minimum concentration for inhibition of melanin production was 1 ppm or less.)
15 | c1ccc(NC2=NCCS2)cc1 [Compound 20] | ∘
16 | CC1CN=C(Nc2ccccc2)S1 (centres unmarked) [Compound 21] | ⊚ (the minimum concentration for inhibition of melanin production was 1 ppm or less.)
17 | Cc1ccccc1NC1=NCCS1 [Compound 22] | ⊚ (the minimum concentration for inhibition of melanin production was 1 ppm or less.)
18 | COc1ccccc1NC1=NCCS1 [Compound 23] | ⊚ (the minimum concentration for inhibition of melanin production was 1 ppm or less.)
19 | COc1ccc(NC2=NC(C)(C)CS2)cc1 [Compound 24] | ∘
20 | COc1cccc(NC2=NC(C)(C)CS2)c1 [Compound 25] | ∘
21 | COc1ccccc1NC1=NC(C)(C)CS1 [Compound 26] | ∘
22 | Cc1ccc(NC2=NC(C)CS2)c(C)c1 (centres unmarked) [Compound 27] | ∘
23 | Cc1ccccc1NC1=NCC(C)(C)S1 [Compound 28] | ⊚ (the minimum concentration for inhibition of melanin production was 1 ppm or less.)
24 | OCC1(CO)CSC(Nc2ccccc2)=N1 [Compound 29] | ∘
25 | Cc1cc(C)c(NC2=NC(CO)(CO)CS2)c(C)c1 [Compound 30] | ∘

Same assay, conditions: Table 4, 3 days, minimum non-cytotoxic concentration at which melanin amount was 80% or less

Row | SMILES | Inhibitory effect on melanin production
26 | Cc1nc(NC(C)(C)C)sc1-c1ccccc1 [Compound 33] | ⊚ (the minimum concentration for inhibition of melanin production was 1 ppm or less.)
27 | Cc1ccc(C(=O)Nc2nc(C)cs2)cc1 [Compound 34] | ∘
28 | O=C(Nc1nc2c(s1)CCCC2)c1ccccc1 [Compound 35] | ⊚ (the minimum concentration for inhibition of melanin production was 1 ppm or less.)
29 | Cc1ccc2oc(Nc3nc(C)cc(O)n3)nc2c1 [Compound 37] | ∘

Same assay, conditions: Table 5, 3 days, minimum non-cytotoxic concentration at which melanin amount was 80% or less

Row | SMILES | Inhibitory effect on melanin production
30 | CC1(C)CN=C(Nc2cccnc2)S1 [Compound 38] | ∘
31 | CC1(C)CN=C(NC2CCCCC2)S1 [Compound 39] | ∘
32 | CC1(C)CN=C(NCc2ccccc2)S1 [Compound 40] | ∘
